Data taken from US6942663B2, “Laser treatment of cutaneous vascular lesions” (Board of Regents, The University of Texas System, priority 2002, dated 2005).
“Also recorded” adds a separate entry of the source.

How the values were obtained:
Assay type in all cases: in vivo, hamster
[1] = tested on: arterioles and venules of the dorsal skin flap window preparation; assay: Subdermal (direct) laser irradiation of blood vessels after glycerol, RE50 for permanent coagulation; settings: 532 nm, 10 ms pulse, 3 mm spot, versus published native skin values [Barton et al., 1998]
Excerpt: (§1) Anhydrous glycerol was applied to the subdermal side of the dorsal skin flap window preparation. The subdermal side of the window preparation contains a well approximately 2 mm deep and 1 cm in diameter placed directly over the exposed subdermal skin. A small opening at the bottom allows the flow of glycerol out of the well. This well was filled with glycerol and continually refilled for a total time of twenty minutes. Any remaining glycerol was removed from the well at the end of twenty minutes.

[2] = tested on: blood vessels (arterioles and venules) in skin; assay: Effect of glycerol applied to the subdermal side of skin on blood flow (dorsal skin flap window preparation, CDOCT imaging)
Method: Hamsters were anesthetized with a 4:3 mixture of Ketamine (20 mg/ml):Rompun (100 mg/ml) and 0.15 ml/100 g body weight of the solution was delivered IP. […] This in vivo model allows the simultaneous observation of the epidermal and subdermal sides of the skin while maintaining hydration and function [Papenfuss et al., 1979]. The preparation has been used as an in vivo model for optical imaging blood vessels on the subdermal side of skin while maintaining access to the epidermis [Barton et al., 1998, Vargas et al., 2001].
The preparation includes shaving and epilating the entire dorsal area of a hamster. The skin is pulled away from the body along the dorsal midline and sutured to a vertical c-clamp. A circular region 1 cm in diameter is cut from one single thickness of skin, exposing the subdermal side of the opposing thickness of skin. An aluminum chamber is sutured to both sides of the skin, and glass is placed over the cutout section to prevent the tissue from dehydrating on the subdermal side. During the experiments, this glass is removed for improved imaging, and hydration is maintained with application of physiological saline.
Blood vessels in the skin of the dorsal window preparation are located in the subdermal fat and connective tissue layers approximately 400-700 μm beneath the epidermal surface and about 80-100 μm from the exposed subdermal surface of a 100 g hamster. Arterioles and venules in the dorsal window preparation range in diameter between about 50-500 μm in inner diameter, with the main arteriole and venule about 350-500 μm in diameter.
as §1
(§2) The skin surrounding the main arteriole-venute pair in each window preparation was first imaged using Color Doppler optical coherence tomography (CDOCT) (see FIG. 5). The skin was imaged from the subdermal side since these blood vessels are located approximately 100 μm from the subdermal surface, allowing for accurate determination of vessel flow and size characteristics. In the case of control samples (2), the vessels were irradiated from the epidermal side immediately after imaging the native skin. This was achieved by applying a single pulse from a 532 nm, 3 mm spot size, 10 ms pulse duration laser (Versapulse V, Coherent) to the skin without altering its position relative to the CDOCT sample probe. The experimental setup is illustrated in FIG. 5.
(§3) In the other three samples, glycerol was applied to the subdermal side of the window preparation for twenty minutes after imaging the native skin with CDOCT. The optically cleared skin was then imaged again using CDOCT. Laser pulses were applied in the same manner described above and the skin was re-imaged after twenty-four hours to assess if permanent vessel closure occurred.

[3] = tested on: main arteriole-venule pair of the dorsal skin flap window preparation; assay: Epidermal laser irradiation of main arteriole-venule pair after glycerol, CDOCT assessment at 24 h
Excerpt: as §1
In this set of experiments, three dorsal skin flap window preparations were treated with glycerol on the subdermal side of the skin. Then, the main arteriole-venule pair (such as the one labeled A and V in FIG. 3) was irradiated from the epidermal side to determine the approximate range of radiant exposures required to permanently destroy blood vessels in skin treated with glycerol. Since no published data exists for direct comparison with controls, two native hamster dorsal skin flap window preparations were irradiated from the epidermal side as well.
as §2
The skin was imaged again to assess changes to blood flow. […] If any changes in flow or vessel size were observed, the skin was not irradiated again and was imaged after 24 hours. In all, 5 pulses were delivered ranging in radiant exposure from 4.13 J/cm^2 to 16 J/cm^2, the maximum allowable for the laser parameters used. In the second control sample, only a single pulse was delivered with a radiant exposure of 12 J/cm^2.
as §3

OCC(O)CO [glycerol]
reduction of radiant exposure required for permanent vessel destruction, arterioles [1]: 10 factor | reduction of radiant exposure required for permanent vessel destruction, venules [1]: 5-8 factor | permanent vessel damage from agent alone ([2]; addition of agent to blood vessels, no laser): did not result in any permanent vessel damage | flow in arterioles ([2]; glycerol added to subdermal side of skin, prolonged periods of exposure): flow in arterioles ceased as well | flow in venules ([2]; glycerol added to subdermal side of skin, within twenty minutes, venules approximately 100-400 μm in diameter): ceased | flow in arteriole and venule (Doppler image) ([2]; glycerol for twenty minutes, arteriole 250 μm, venule 300 μm, imaged from subdermal side): no flow remains; also recorded: flow does not remain in either the arteriole or venule | flow in arterioles and venules after hydration (reversibility) ([2]; skin hydrated in physiologic saline solution after glycerol): returned to physiologic values; also recorded: upon hydration the skin and blood vessels return to their native state | vessel outcome 24 h after single pulse of 1.6 J/cm^2 ([3]; glycerol twenty minutes, arteriole 250 μm, venule 300 μm, 450 μm from epidermal surface, skin hydrated): Permanent coagulation has been achieved in both blood vessels; also recorded: flow has not returned to either vessel | vessel outcome after radiant exposure of 4.13 J/cm^2 ([3]; glycerol, 200 μm arteriole and 410 μm venule): successful permanent coagulation | vessel outcome after radiant exposure of 4.95 J/cm^2 ([3]; glycerol, 300 μm arteriole and 390 μm venule): only the venule was successfully coagulated | lowest radiant exposure that successfully destroyed blood vessels ([3]; three window preparations, glycerol before irradiation from the epidermal side, 532 nm, 10 ms, 3 mm spot): 1.6 J/cm^2
